Assay results from PMC7738880, “Identification of novel CD44v6-binding peptides that block CD44v6 and deliver a pro-apoptotic peptide to tumors to inhibit tumor growth and metastasis in mice” (Theranostics, 2021).
Residues, ends and D or L forms follow the SMILES beside them.

Columns and labels:
4T1 cells [1] = test: Saturation cell binding assay, 4T1; design: species or system mouse; conditions: biotin-labeled peptide 0-256 µM, 4 °C, 1 h
Description: (§1) Supplementary Information
Supplementary Materials and Methods
Saturation binding assays to determine the cellular binding affinities of peptides Cells (5 × 10^3 cells per well in a 96-well plate) were incubated with 1% bovine serum albumin (BSA) for 30 min and with different concentrations of biotin-labeled peptides (0, 2, 4, 8, 16, 32, 64, 128, and 256 µM) at 4 °C for 1 h. After washing, the cells were incubated with horseradish peroxidase-conjugated neutravidin (1:10,000 dilution; ThermoFisher Scientific, Waltham, MA) for 30 min at room temperature. Enzymatic activity was detected using a 3,3ʹ,5,5ʹ-tetramethylbenzidine substrate (ThermoFisher Scientific), and the reaction was stopped using 2 M sulfuric acid. The absorbance at 450 nm was measured in each well using a microplate reader (Tecan, Mannedorf, Switzerland). The KD values were then calculated using GraphPad Prism 6 software (GraphPad Inc., La Jolla, CA). […]
10 µM biotin-labeled CD44v6-binding peptides at 4 °C for 1 h. […]
Scientific) for 30 min at room temperature. […]

[2] = molecular target: T1, recombinant human CD44v6-Fc protein (Homo sapiens, UniProt P16070); test: ELISA of peptide binding to recombinant proteins; conditions: 10 µM biotin-labeled peptide, 4 °C, 1 h
T1 sequence (P16070 386-428 limits assumed): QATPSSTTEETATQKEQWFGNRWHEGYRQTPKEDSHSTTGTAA
Description: as §1
Supplementary Materials and Methods […]
peroxidase-conjugated neutravidin (1:10,000 dilution; ThermoFisher Scientific, Waltham, MA) for 30 min at room temperature. Enzymatic activity was detected using a 3,3ʹ,5,5ʹ-tetramethylbenzidine substrate (ThermoFisher Scientific), and the reaction was stopped using 2 M […]
sulfuric acid. […]
Enzyme-linked immunosorbent assay (ELISA) of peptide binding to recombinant proteins ELISA plates were coated overnight with 100 μL of recombinant human CD44v6-Fc and CD44-Fc proteins (R&D Systems, Minneapolis, MN) at a concentration of 1 μg/mL in Tris-buffered saline with 0.05% Tween-20. BSA was used as a control. After coating, plates were incubated with 10 µM biotin-labeled CD44v6-binding peptides at 4 °C for 1 h. After washing, the cells were incubated with horseradish peroxidase-conjugated neutravidin (1:10,000 dilution; ThermoFisher Scientific) for 30 min at room temperature. Detection of enzymatic activity and measurement of absorbance was performed as described above. Relative binding was calculated based on the absorbance, in which the absorbance of BSA was set to 1.

[3] = molecular target: T2, CD44v6 on MDA-MB231 cells (Homo sapiens, UniProt P16070); test: Flow cytometric competition assays with anti-CD44v6 antibody; type: cell-based; conditions: for peptide binding to cells after pre-treatment with anti-CD44v6 antibody: MDA-MB231, antibody 5 µg/mL 1 h, FITC-labeled peptide 10 µM; for staining of CD44v6 with anti-CD44v6 antibody after pre-treatment with peptide: MDA-MB231, peptide 50 µM 1 h
T2 sequence (P16070 386-428 limits assumed): T1 sequence (P16070 386-428 limits assumed)
Description: Cells (1 × 10^5 cells) were harvested and suspended in culture medium containing 1% BSA for 1 h, followed by an incubation with FITC-labeled peptides (25 µM) at 4 °C for 1 h. After washing, the cells were analyzed using a FACSCalibur flow cytometer (BD, Franklin Lakes, NJ). For competition assays, cells were incubated with 5 µg/mL of an anti-human CD44v6 mouse monoclonal antibody (clone no. VFF-18, 1:100 dilution; Abcam, Cambridge, MA) and anti-human CD44 monoclonal antibody (clone no. 156-3C11, 1:100 dilution; ThermoFisher Scientific) for 1 h to compete with peptide binding, followed by an incubation with FITC-labeled peptides (10 µM) before analysis on a flow cytometer (BD). In another set of assays, cells were incubated with peptides (50 µM) for 1 h to compete with antibody binding, followed by an incubation with 5 µg/mL of the anti-human CD44v6 mouse monoclonal antibody for 1 h, The cells were then incubated with an Alexa Fluor 488-labeled goat anti-mouse IgG secondary antibody (Merck) before analysis on a flow cytometer (BD).

[4] = tested on: c-Met and Erk phosphorylation in MDA-MB231 cells; test: Western blotting of HGF-induced c-Met and Erk phosphorylation, MDA-MB231; type: cell-based, human; conditions: peptide 20 µM 10 min, HGF 25 ng/mL 10 min
Description: To examine c-Met and Erk phosphorylation, MDA-MB231 cells were serum-starved for 24 h, pre-treated with CD44v6-binding peptides (20 µM) for 10 min, and incubated with 25 ng/mL HGF for 10 min. After the incubation, the cell lysates were subjected to Western blotting analyses using an anti-phospho-Met rabbit monoclonal antibody (clone no. D26; Cell Signaling Technology), anti-Met mouse monoclonal antibody (clone no. 25H2, 1:1000 dilution; Cell Signaling Technology), anti-phospho-Erk1/2 rabbit monoclonal antibody (clone no. 197G2; Cell Signaling Technology), and anti-ERK1 rabbit polyclonal antibody (1:1000 dilution; Santa Cruz Biotechnology). The labeled bands on immunoblots were detected using enhanced chemiluminescence reagents (ThermoFisher Scientific).

MDA-MB231 cells = test: Transwell cell migration and invasion assays, MDA-MB231; type: cell-based, human; conditions: peptide 20 µM, HGF 25 ng/mL, 24 h
Description: (§2) Transwell chambers (24-wells) with 8 μm pores were obtained from Corning (Corning, NY). MDA-MB231 and 4T1 cells (1 × 10^6 cells) were harvested, resuspended in 200 μL of DMEM containing CD44v6-binding peptides (20 µM), and then seeded into the upper chamber of the transwell chambers. The lower chamber was filled with 600 μL of DMEM containing 25 ng/mL HGF. After 24 h of incubation, cells that migrated into the reverse side of the transwell membrane were fixed with methanol, stained with crystal violet, and then counted under a light microscope. An average of five visual fields was obtained. For invasion assays, the transwell membrane was pre-coated with 300 µg/mL of Matrigel (Corning).

4T1 cells [5] = test: Transwell cell migration and invasion assays, 4T1; type: cell-based, mouse; conditions: HGF 25 ng/mL, 24 h
Description: as §2, with “(Corning). […]” for “(Corning).”
phosphorylation in 4T1 cells. (C-D) Transwell migration (C) and invasion (D) assays of 4T1 cells pre-treated or not with 5 μg/mL NLN and NEW for 10 min and subsequently treated with 25 ng/mL HGF for 10 min, followed by incubation for 24 h. Scale bars = 20 μm. Graphs (right panels) represent the quantification of the cell numbers in ten randomly selected fields. Data are shown as the means ± S.E. of three independent experiment. **, P < 0.01; ***, P < 0.001; n.s, not significant compared with HGF by one-way ANOVA.

| SMILES | Kd (4T1 cells [1]) | binding to recombinant CD44v6-Fc protein coated on plates compared with CD44-Fc and albumin [2] | peptide binding to cells after pre-treatment with anti-CD44v6 antibody [3] | staining of CD44v6 with anti-CD44v6 antibody after pre-treatment with peptide [3] | HGF-induced phosphorylation of c-Met and Erk, MDA-MB231 [4] | HGF-induced cell migration and invasion, MDA-MB231 (MDA-MB231 cells) | HGF-induced cell migration and invasion, 4T1 (4T1 cells [5]) |
| --- | --- | --- | --- | --- | --- | --- | --- |
| CC[C@H](C)[C@H](NC(=O)[C@@H](NC(=O)[C@H](CC(N)=O)NC(=O)[C@H](CC(C)C)NC(=O)[C@H](CC(N)=O)NC(=O)[C@@H](N)CS)[C@@H](C)O)C(=O)N[C@@H](CC(=O)O)C(=O)N[C@H](C(=O)N[C@@H](CS)C(=O)O)[C@@H](C)O [NLN] (H-CNLNTIDTC-OH; N-terminus and C-terminus assumed) | 17 ± 7 µM | preferentially bound | significantly inhibited | inhibited | inhibited | inhibited | inhibited |
| CC(C)C[C@H](NC(=O)[C@H](CCC(N)=O)NC(=O)[C@H](Cc1c[nH]c2ccccc12)NC(=O)[C@H](CCC(=O)O)NC(=O)[C@H](CC(N)=O)NC(=O)[C@@H](N)CS)C(=O)N[C@@H](CCCCN)C(=O)N[C@@H](CO)C(=O)N[C@@H](CS)C(=O)O [NEW] (H-CNEWQLKSC-OH; N-terminus and C-terminus assumed) | 29 ± 16 µM | preferentially bound | significantly inhibited | inhibited | inhibited | inhibited | inhibited |
